Measurements: US6255324A, “Amino-and mercurio-substituted 4',5'-dihydropsoralens and therapeutical uses thereof” (priority 1998, dated 2001)
Read-outs that look alike come from different tables or passages of the source.

Key:
PAM 212 keratinocytes [1] = assay: PAM 212 keratinocyte growth inhibition (photo-toxicity with UVA / dark-toxicity without light); type: cell-based; conditions: UVA 320-400 nm, 1.28 J/cm2, growth 4-5 days
Experimental: Representative examples of the compounds described and claimed herein were tested in this assay for biological activity and found to be potent inhibitors of cell growth. Inhibition of cell growth was rapid, dependent on concentration, and required light activation. […] A description of this assay follows.
The photobiological activity was assayed using a keratinocyte cell line grown in a monolayer culture. In this assay, PAM 212 keratinocytes were grown in Dulbecco's Modified Eagle's medium supplemented with 10% newborn calf serum in a 5% carbon dioxide incubator. Cells were inoculated into 6-well Falcon plastic culture dishes at 25,000 cells per well. After 24 hours, the medium was charged to fresh growth medium supplemented with increasing concentrations of the test compounds or the control medium. Controls and test concentrations were analyzed in triplicate.
These plates were then incubated in a 37 degree C. carbon dioxide incubator. After 30 minutes culture plates were exposed to UVA light (UVA, 320-400 nm) emitted from a bank of four BLB fluorescent light tubes (F40 BL, Sylvania) placed approximately 10 cm above the cell culture plates. The incident light on the culture plates was 2.4 mW/cm^2 as measured with an International Light UV radiometer, Model IL 442A. The cells were exposed to 1.28 J/square centimeter of UVA.
After completion of the irradiation phase, the cell culture medium was drained, the cells refed with fresh growth medium and then re-incubated in the carbon dioxide incubator to allow for cell growth. After 4-5 days of growth the culture plates were removed from the incubator and the cell culture medium was drained. The cells were detached from the plates with trypsin and counted in a Coulter Counter. For control cells or for cells treated with test compounds, cell growth was determined as a percentage of control. […] This value is shown in Table I for a variety of phototherapeutics.

Aspergillus niger = assay: Fungicidal assay, MIC against Aspergillus niger in MSY broth; type: cell-based; conditions: Table II, four days at 28° C, in the dark, no unit in table (ppm levels)
Experimental: The antifungal activities of compounds synthesized were measured by determining the inhibition of growth of Aspergillus niger in a standard liquid medium. The liquid growth medium is described as a solution of mineral salts and yeast extract (MSY). The MSY broth was prepared as described in ASTM G21-70, and amended with glucose (10 g/l) and yeast extract (1 g/l). An aliquot ([…]) of sterile medium was dispensed into each test well of a standard 96 well microplate (Corning No. 430247). Stock solutions of test compounds were prepared by dissolving the materials in 9:1 (v/v) solutions of acetone:methanol. Appropriate volumes of stock solutions were added to the test wells in order to achieve the desired ppm levels. Each test well (plus controls) was then inoculated with […] of a standardized suspension of Aspergillus niger. The cell suspension was prepared by suspending viable cells from a slant of potato dextrose agar into sterile, deionized water. The suspension was then adjusted to provide OD686 =0.28. This density contains approximately 2.5×10^7 CFU (colony forming units)/ml. The microplates were incubated in the dark for four days at 28° C. The optical density for each well at 686 nm was then recorded automatically using a SpectraMax 340 microplate reader (Molecular Devices Corp., Sunnyvale, Calif.). All wells were visually inspected in order to corroborate data from the instrument.
The antifungal activity was measured as minimum inhibitory concentrations or MIC of the 5'-substituted-4',5'-dihydropsoralens.

Chlorella vulgaris = assay: Algicidal assay, MIC against Chlorella in modified Allen's medium; type: cell-based; conditions: Table III, 14 days, 26 to 28° C, no unit in table (ppm)
Experimental: To assay the activity of the 5'-substituted-4',5'-dihydropsoralens of the invention against Chlorella, the Allen method (A. A. Allen, […], Journal of Phycology, 4, 1-4) was employed. […] The minimum inhibitory concentration (MIC) of the compounds tested against the fungus Aspergillus niger using an MSY broth is shown in Table II.
Test tubes containing modified Allen's medium were treated with increasing dosages of the compound to be tested and inoculated with a suspension of algal cells. After fourteen days of incubation, algal growth was rated as positive or negative. The minimum inhibitory concentration (MIC) of the compound is the smallest dosage showing negative algal growth.
The apparatus required consisted of sterilized test tubes, 18-150 mm and an incubator, capable of a constant (±2° C.) temperature within 26 to 28° C. The following procedure was used:
(1) Stock solutions (g/200 g deionized water each) were generated with: K2 HPO4, 1.50 g; MgSO4, 7H2 O, 1.50 g; Na2 CO3, 0.80 g; CaCl2 2H2 O, 0.50 g; Na2 SiO3 9H2 O, 1.16 g, and Citric acid, 1.20 g.
(3) The modified Allen's medium was prepared in a volumetric flask by the addition of 1.5 g NaNO3, 5.0 mL stock solution K2 HPO4, 5.0 mL stock solution MgSO4 -- 7H2 O, 5.0 mL Stock solution Na2 CO3, 10.0 mL stock solution CaCl2 2H2 O, 10.0 mL stock solution Na2 SiO3 9H2 O, 1.0 mL stock solution Citric acid and 1.0 mL stock solution PIV metal with enough deionized water to make 1000 mL of medium (Allen, 1968). The pH was adjusted to 7.8 and 5 mL of medium is added to each test tube. The tubes were sterilized in the autoclave for 20 minutes at 15 psi at 121° C. The test tubes were allowed to cool to 45-50° C. before adding the test compound and the inoculurn to the medium.
(4) The inoculum was a cell suspension from a 14-day-old culture of Chlorella vulgaris (UTEX 26, University of Texas) that was grown in modified Allen's medium.
The concentration of the stock solution in water or acetone of the compound to be tested is dependent on the largest dose required to be tested. Dilutions of the stock solution were made so that 100 μL of the stock solution of the corresponiding dilution was added per test tube. 100 μL of the solvent was added to the control to prepare the stock solution.
The inoculation consists of the addition of 100 μL of inoculurn per test tube.
The incubation of the control test tube and the test tubes containing compound and inoculum occurred in an incubator set between 26 to 28° C., with the temperature not varying more than ±2° C. Light was provided by plant growth fluorescent tubes and the test tubes were allowed to stand in the incubator for 14 days.
Rating of the test tubes containing different dosages of the compound will be positive or negative. […] If the medium in the rubes remains colorless, a negative (not contaminated) rating is given. The control is always positive. The minimum inhibitory concentration (MIC) of the compound is determined to be the smallest dosage showing negative algal growth.

[2] = tested on: Mycobacterium tuberculosis H37Rv; assay: Antituberculosis primary in vitro screen, BACTEC 460; type: cell-based, Mycobacterium tuberculosis H37Rv ATCC 27294; conditions: 12.5 μg/mL, 37° C
PAM 212 keratinocytes [3] = assay: PAM 212 keratinocyte growth inhibition (photo-toxicity with UVA / dark-toxicity without light); type: cell-based

[I][Hg][CH2]C1Cc2ccccc2O1 (centres unmarked) [T = HgI, 2-Iodomercurimethyl-2,3-dihydrobenzofuran]
IC50 (PAM 212 keratinocytes [1]): 5.7 µM
MIC (Aspergillus niger): < 8
MIC (Chlorella vulgaris): 10
Anti-tubercular Activity (% inhibition) [2]: 99%
IC50 (PAM 212 keratinocytes [3]): 12 µM
